Consider ten compounds from US20070149535A1, “Protein kinase inhibitors” (ONCALIS AG, priority 2004, published 2007).

Assay in all cases: Yeast growth assay, specificity profiling
What all share (type): cell-based
Common to all, as to set-up: key: “−” indicates no growth restoration i.e. no activity against the particular kinase; “+”, “++”, and “+++” indicate activity detected by restoration of growth, classified into three categories of potency; “+”, “++”, and “+++” indicate activity detected by restoration of growth, classified into three categories of potency; “+”, “++”, and “+++” indicate activity detected by restoration of growth, classified into three categories of potency
What all share (conditions): 7 concentrations between 0.2 and 100 μM

One assay deals with T1, RET (Homo sapiens, UniProt P07949).
T1 construct: expressed in transfected cells; host or cells: yeast
The protocol:
(§1) Specificity Profiling: Yeast Growth Assay
(§2) The yeast growth assay was performed as described in “Method for the identification and/or validation of receptor tyrosine kinase inhibitors” PCT/CH03/00694 (2004/10/24), section “Modes for Carrying out the Invention, Experiment 1 and Experiment 2.
(§3) Briefly, yeast cells carrying plasmids with the RTK of interest were grown in glucose containing medium (repressing expression). The cultures were diluted into galactose containing medium, which induces the expression of the kinase. Expression of the kinase inhibits growth of the yeast cells, which allows for positive selection of kinase inhibitors restoring growth of cells. Compounds were titrated at 7 concentrations between 0.2 and 100 μM.
(§4) Specificity profiling of compounds, using the yeast growth assay method described above. “−” indicates no growth restoration i.e. no activity against the particular kinase, “+”, “++”, and “+++” indicate activity detected by restoration of growth, classified into three categories of potency according to the maximal level of growth restoration reached and the concentration at which the maximal growth restoration is reached.

The target in the next assay is T2, InsR (Homo sapiens, UniProt P06213).
T2 construct: expressed in transfected cells; host or cells: yeast
The protocol: as §1, §2, §3, §4

The target of the next assay is T3, EphB2 (Homo sapiens, UniProt P29323).
T3 construct: expressed in transfected cells; host or cells: yeast
T3 sequence (P29323 19-1055): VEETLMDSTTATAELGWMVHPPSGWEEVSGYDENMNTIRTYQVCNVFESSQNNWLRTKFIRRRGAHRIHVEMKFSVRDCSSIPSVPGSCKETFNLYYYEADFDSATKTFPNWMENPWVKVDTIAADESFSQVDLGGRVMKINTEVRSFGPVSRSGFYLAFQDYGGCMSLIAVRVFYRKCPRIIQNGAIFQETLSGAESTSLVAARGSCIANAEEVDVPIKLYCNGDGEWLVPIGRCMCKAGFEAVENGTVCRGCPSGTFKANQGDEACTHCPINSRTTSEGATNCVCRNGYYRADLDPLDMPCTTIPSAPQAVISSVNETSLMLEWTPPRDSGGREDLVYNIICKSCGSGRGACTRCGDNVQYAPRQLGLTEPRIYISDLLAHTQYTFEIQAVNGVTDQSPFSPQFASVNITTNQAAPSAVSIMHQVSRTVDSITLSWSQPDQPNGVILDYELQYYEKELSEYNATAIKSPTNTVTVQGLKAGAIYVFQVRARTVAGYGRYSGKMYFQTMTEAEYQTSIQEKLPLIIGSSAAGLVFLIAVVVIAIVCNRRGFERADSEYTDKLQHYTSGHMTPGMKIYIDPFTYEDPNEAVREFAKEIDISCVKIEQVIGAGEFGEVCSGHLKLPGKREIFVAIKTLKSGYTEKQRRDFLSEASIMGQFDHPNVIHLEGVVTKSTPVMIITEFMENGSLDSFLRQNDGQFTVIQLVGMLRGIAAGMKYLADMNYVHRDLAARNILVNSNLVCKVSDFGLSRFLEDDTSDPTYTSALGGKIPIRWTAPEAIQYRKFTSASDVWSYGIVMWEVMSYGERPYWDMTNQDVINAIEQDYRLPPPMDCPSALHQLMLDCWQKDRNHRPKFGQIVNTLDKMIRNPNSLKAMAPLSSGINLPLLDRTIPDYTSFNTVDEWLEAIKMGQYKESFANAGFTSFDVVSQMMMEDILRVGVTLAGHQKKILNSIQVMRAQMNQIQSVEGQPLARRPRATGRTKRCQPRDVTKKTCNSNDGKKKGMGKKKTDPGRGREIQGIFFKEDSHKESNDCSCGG
The protocol:
as §1, §2, §3, §4

The target of a further assay is T4, TEK (Homo sapiens, UniProt Q02763).
T4 construct: expressed in transfected cells; host or cells: yeast
The protocol: as §1, §2, §3, §4

The target of the next assay is T5, IGF-1R (Homo sapiens, UniProt P08069).
T5 construct: expressed in transfected cells; host or cells: yeast
The protocol:
as §1, §2, §3, §4

The target of a further assay is T6, VEGFR1 (Homo sapiens, UniProt P17948).
T6 construct: expressed in transfected cells; host or cells: yeast
Here is the method: as §1, §2, §3, §4

For another assay, the target named is T7, VEGFR2 (Homo sapiens, UniProt P35968).
T7 construct: expressed in transfected cells; host or cells: yeast
The protocol:
as §1, §2, §3, §4

T2 sequence (P06213 28-1382): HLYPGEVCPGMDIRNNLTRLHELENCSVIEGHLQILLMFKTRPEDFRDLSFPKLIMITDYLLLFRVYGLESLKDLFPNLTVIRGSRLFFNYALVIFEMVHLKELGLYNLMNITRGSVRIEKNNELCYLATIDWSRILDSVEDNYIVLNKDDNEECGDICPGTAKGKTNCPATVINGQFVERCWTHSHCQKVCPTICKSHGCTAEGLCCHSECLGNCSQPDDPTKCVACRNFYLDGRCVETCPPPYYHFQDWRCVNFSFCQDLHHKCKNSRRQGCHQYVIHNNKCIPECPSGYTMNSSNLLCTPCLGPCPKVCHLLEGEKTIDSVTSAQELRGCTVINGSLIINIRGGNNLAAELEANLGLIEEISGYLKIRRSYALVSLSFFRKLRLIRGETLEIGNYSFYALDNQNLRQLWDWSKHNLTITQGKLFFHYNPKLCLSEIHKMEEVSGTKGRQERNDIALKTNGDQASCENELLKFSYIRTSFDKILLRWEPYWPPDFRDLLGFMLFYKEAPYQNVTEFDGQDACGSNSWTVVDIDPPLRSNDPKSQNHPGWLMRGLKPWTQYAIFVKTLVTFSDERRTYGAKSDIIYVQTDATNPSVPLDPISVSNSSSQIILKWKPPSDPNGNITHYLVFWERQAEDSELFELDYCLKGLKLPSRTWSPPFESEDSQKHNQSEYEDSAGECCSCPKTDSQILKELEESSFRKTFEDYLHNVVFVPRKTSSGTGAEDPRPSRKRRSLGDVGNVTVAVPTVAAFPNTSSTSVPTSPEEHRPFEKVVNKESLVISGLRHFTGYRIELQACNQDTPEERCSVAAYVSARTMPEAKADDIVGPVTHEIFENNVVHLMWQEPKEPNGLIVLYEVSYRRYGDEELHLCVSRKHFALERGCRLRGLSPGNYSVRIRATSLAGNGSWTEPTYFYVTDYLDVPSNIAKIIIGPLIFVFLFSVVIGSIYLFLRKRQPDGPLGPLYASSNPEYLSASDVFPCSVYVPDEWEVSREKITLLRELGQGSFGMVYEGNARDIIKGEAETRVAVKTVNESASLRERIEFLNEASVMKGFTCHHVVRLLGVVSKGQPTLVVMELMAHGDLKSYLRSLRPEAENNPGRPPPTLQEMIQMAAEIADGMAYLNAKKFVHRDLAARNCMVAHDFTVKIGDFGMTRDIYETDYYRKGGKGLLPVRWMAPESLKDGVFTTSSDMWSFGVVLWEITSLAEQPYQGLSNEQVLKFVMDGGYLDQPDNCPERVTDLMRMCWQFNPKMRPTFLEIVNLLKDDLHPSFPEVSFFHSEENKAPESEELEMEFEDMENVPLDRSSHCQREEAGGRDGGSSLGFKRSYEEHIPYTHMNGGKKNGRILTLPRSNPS
T5 sequence (P08069 31-1367): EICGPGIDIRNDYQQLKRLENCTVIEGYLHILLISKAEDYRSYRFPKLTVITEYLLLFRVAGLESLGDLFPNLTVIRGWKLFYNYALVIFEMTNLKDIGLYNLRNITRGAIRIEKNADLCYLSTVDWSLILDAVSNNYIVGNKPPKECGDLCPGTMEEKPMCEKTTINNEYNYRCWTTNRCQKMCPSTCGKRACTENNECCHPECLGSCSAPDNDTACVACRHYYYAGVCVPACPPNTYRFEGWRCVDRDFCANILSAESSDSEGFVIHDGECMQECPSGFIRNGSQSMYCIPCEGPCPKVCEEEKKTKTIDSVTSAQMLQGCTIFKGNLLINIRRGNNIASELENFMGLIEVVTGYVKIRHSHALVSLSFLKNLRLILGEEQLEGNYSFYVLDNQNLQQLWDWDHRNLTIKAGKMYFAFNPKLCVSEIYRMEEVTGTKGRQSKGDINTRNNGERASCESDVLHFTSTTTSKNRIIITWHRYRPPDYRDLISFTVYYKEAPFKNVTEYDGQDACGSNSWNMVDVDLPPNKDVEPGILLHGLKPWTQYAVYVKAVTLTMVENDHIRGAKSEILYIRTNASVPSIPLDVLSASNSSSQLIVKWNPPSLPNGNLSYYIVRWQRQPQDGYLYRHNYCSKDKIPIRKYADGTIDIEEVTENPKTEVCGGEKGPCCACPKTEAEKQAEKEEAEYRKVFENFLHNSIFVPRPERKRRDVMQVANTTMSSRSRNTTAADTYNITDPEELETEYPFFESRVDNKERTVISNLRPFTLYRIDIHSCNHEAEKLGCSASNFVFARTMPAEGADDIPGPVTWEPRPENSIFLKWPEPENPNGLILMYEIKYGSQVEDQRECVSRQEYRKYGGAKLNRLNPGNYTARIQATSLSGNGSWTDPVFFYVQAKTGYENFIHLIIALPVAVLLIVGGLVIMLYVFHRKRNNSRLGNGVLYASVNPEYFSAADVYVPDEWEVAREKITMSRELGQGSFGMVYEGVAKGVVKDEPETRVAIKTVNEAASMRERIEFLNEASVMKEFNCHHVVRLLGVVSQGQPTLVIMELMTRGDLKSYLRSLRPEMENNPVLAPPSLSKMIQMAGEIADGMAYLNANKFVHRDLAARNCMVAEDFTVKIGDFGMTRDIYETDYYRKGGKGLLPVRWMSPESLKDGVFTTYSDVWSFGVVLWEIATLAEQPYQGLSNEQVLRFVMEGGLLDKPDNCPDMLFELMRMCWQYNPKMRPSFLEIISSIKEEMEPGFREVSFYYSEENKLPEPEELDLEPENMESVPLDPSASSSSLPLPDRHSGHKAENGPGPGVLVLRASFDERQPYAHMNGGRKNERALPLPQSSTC
T6 sequence (P17948 27-1338): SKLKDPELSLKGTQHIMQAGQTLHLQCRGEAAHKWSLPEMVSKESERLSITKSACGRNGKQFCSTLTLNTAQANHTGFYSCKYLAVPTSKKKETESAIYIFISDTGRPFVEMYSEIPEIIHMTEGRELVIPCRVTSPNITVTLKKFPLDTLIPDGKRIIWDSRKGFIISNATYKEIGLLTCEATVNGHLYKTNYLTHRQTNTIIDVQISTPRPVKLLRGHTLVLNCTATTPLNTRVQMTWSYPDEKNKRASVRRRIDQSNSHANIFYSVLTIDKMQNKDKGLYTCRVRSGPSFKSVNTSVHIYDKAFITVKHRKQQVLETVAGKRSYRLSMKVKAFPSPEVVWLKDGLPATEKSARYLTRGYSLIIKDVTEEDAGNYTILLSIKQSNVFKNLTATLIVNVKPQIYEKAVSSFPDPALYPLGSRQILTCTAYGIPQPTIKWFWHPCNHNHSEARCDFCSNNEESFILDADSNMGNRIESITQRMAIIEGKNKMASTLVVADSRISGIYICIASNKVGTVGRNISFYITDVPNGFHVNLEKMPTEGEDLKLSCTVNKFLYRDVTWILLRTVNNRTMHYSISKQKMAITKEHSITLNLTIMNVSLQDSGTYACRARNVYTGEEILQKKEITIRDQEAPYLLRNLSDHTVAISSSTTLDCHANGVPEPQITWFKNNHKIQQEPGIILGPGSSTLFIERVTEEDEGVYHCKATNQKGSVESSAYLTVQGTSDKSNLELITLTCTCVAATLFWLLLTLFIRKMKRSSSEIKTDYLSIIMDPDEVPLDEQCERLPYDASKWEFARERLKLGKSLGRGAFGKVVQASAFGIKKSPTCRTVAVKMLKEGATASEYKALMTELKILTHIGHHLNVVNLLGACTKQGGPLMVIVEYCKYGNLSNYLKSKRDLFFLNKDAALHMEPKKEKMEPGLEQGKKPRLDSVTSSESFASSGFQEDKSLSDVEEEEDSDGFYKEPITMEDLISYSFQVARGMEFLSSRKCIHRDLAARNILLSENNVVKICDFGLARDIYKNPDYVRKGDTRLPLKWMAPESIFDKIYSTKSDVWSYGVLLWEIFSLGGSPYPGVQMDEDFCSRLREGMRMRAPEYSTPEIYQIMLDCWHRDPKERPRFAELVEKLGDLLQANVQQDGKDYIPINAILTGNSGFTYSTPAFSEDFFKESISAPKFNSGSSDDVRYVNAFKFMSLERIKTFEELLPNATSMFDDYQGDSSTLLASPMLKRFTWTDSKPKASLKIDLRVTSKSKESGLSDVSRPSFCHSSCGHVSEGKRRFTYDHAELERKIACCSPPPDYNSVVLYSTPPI
T4 sequence (Q02763 23-1124): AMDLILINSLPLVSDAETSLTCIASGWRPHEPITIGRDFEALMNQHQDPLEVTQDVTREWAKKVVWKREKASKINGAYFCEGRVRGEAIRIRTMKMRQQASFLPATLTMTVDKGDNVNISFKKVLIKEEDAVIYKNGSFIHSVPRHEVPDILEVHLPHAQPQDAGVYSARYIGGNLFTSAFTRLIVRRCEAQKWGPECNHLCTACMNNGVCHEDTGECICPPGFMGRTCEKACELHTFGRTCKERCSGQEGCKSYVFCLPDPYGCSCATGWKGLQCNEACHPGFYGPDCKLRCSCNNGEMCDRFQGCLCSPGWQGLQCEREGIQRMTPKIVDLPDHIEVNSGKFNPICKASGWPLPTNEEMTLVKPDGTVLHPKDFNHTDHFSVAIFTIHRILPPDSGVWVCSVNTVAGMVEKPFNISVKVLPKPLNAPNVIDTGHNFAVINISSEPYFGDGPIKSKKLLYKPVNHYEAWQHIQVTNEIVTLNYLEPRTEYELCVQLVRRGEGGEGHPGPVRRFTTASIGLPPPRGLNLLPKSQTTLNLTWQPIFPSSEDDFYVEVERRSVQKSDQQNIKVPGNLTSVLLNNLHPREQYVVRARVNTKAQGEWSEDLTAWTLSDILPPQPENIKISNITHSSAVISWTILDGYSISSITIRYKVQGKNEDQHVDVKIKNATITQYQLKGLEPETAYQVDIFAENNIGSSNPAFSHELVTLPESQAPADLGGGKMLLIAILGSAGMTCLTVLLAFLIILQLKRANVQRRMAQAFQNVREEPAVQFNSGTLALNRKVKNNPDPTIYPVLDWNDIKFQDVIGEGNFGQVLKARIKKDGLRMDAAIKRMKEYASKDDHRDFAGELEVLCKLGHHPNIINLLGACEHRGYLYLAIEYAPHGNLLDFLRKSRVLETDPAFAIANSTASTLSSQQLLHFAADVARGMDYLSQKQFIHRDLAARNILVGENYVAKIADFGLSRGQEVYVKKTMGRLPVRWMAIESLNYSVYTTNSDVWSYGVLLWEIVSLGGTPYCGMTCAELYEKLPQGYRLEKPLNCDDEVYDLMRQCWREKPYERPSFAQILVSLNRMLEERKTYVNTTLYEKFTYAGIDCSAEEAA

Turning to `Fc1ccc(Nc2c(-c3ccccc3)nc3cnccn23)cc1F` [compound 30, (3,4-Difluoro-phenyl)-(2-phenyl-imidazo[1,2-a]pyrazin-3-yl)-amine], at RET, the RET growth restoration result is “−”. Besides, at InsR, the InsR growth restoration entry is given as “−”. In addition, the EphB2 growth restoration result on EphB2 is “+”. Further, at TEK, the TEK growth restoration result is reported as “−”. Moreover, the IGF-1R growth restoration result on IGF-1R is listed as “−”. Moreover, the VEGFR1 growth restoration entry on VEGFR1 was “−”. Moreover, the VEGFR2 growth restoration result at VEGFR2 was “−”.

Take `CC(=O)Nc1ccc(-c2nc3c(C)nccn3c2Nc2cccc(Cl)c2)cc1` [compound 33, N-{4-[3-(3-Chloro-phenylamino)-8-methyl-imidazo[1,2-a]pyrazin-2-yl]-phenyl}-acetamide]: the RET growth restoration result at RET is “−”. Further, on InsR, the InsR growth restoration result is reported as “−”. Besides, the EphB2 growth restoration entry on EphB2 is recorded as “+++”. Moreover, the TEK growth restoration result on TEK is listed as “−”. In addition, the IGF-1R growth restoration entry on IGF-1R was “−”. The VEGFR1 growth restoration entry on VEGFR1 is on record as “−”. Also, at VEGFR2, the VEGFR2 growth restoration entry is “−”.

As for `Cc1cccc(Nc2c(-c3ccccc3)nc3cnccn23)c1` [compound 34, (2-Phenyl-imidazo[1,2-a]pyrazin-3-yl)-m-tolyl-amine], the RET growth restoration entry on RET is “−”. Besides, the InsR growth restoration entry on InsR is given as “−”. In addition, the EphB2 growth restoration entry on EphB2 was “−”. At TEK, the TEK growth restoration result is reported as “−”. Further, at IGF-1R, the IGF-1R growth restoration entry is recorded as “−”. The VEGFR1 growth restoration result at VEGFR1 was “−”. The VEGFR2 growth restoration entry at VEGFR2 was “−”.

As for `Clc1cccc(Nc2c(-c3ccccc3)nc3cnccn23)c1` [compound 35, (3-Chloro-phenyl)-(2-phenyl-imidazo[1,2-a]pyrazin-3-yl)-amine], the RET growth restoration result at RET is given as “+”. Also, the InsR growth restoration result on InsR is “−”. For the same compound, the EphB2 growth restoration result on EphB2 is listed as “−”. For the same compound, the TEK growth restoration result at TEK is given as “−”. Further, the IGF-1R growth restoration entry on IGF-1R is recorded as “−”. Further, the VEGFR1 growth restoration entry at VEGFR1 was “−”. For the same compound, at VEGFR2, the VEGFR2 growth restoration entry is “−”.

Consider `c1ccc(Nc2c(-c3ccc(N4CCOCC4)cc3)nc3cnccn23)cc1` [compound 38, [2-(4-Morpholin-4-yl-phenyl)-imidazo[1,2-a]pyrazin-3-yl]-phenyl-amine], for which the RET growth restoration entry at RET is “−”. For the same compound, the InsR growth restoration result at InsR was “+”. Besides, on EphB2, the EphB2 growth restoration entry was “++”. Moreover, the TEK growth restoration entry at TEK is given as “−”. The IGF-1R growth restoration result at IGF-1R is on record as “−”. In addition, the VEGFR1 growth restoration result on VEGFR1 is listed as “+”. In addition, the VEGFR2 growth restoration result on VEGFR2 was “−”.

As to `Cc1nccn2c(Nc3ccccc3)c(-c3ccccc3)nc12` [compound 39, (8-Methyl-2-phenyl-imidazo[1,2-a]pyrazin-3-yl)-phenyl-amine], the RET growth restoration entry at RET is on record as “+”. Also, the InsR growth restoration result on InsR is “−”. In addition, the EphB2 growth restoration result at EphB2 is reported as “+++”. In addition, the TEK growth restoration entry on TEK is given as “−”. For the same compound, at IGF-1R, the IGF-1R growth restoration entry is “−”. In addition, at VEGFR1, the VEGFR1 growth restoration entry is reported as “−”. For the same compound, the VEGFR2 growth restoration entry on VEGFR2 was “−”.

Regarding `COc1cccc(-c2nc3c(C)nccn3c2Nc2cccc(C)c2)c1` [compound 42, [2-(3-Methoxy-phenyl)-8-methyl-imidazo[1,2-a]pyrazin-3-yl]-m-tolyl-amine], the RET growth restoration result at RET is on record as “−”. On InsR, the InsR growth restoration entry is “−”. The EphB2 growth restoration entry on EphB2 is “+++”. In addition, at TEK, the TEK growth restoration result is given as “−”. Moreover, the IGF-1R growth restoration entry on IGF-1R was “−”. Besides, on VEGFR1, the VEGFR1 growth restoration result is given as “−”. For the same compound, the VEGFR2 growth restoration entry at VEGFR2 is given as “−”.

As for `Cc1cccc(Nc2c(-c3ccccc3)nc3c(C)nccn23)c1` [compound 43, (8-Methyl-2-phenyl-imidazo[1,2-a]pyrazin-3-yl)-m-tolyl-amine], on RET, the RET growth restoration entry was “−”. Moreover, at InsR, the InsR growth restoration entry is on record as “−”. The EphB2 growth restoration entry on EphB2 was “++”. Moreover, on TEK, the TEK growth restoration entry is “−”. In addition, at IGF-1R, the IGF-1R growth restoration result is reported as “−”. For the same compound, the VEGFR1 growth restoration entry at VEGFR1 was “−”. Also, the VEGFR2 growth restoration result at VEGFR2 is recorded as “−”.

Regarding `Cc1nccn2c(Nc3cccc(F)c3)c(-c3ccccc3)nc12` [compound 44, (3-Fluoro-phenyl)-(8-methyl-2-phenyl-imidazo[1,2-a]pyrazin-3-yl)-amine], the RET growth restoration entry on RET is reported as “−”. Moreover, the InsR growth restoration result at InsR is on record as “−”. Besides, the EphB2 growth restoration result on EphB2 is on record as “+++”. In addition, the TEK growth restoration entry at TEK is “−”. Moreover, the IGF-1R growth restoration result on IGF-1R was “−”. Also, the VEGFR1 growth restoration entry on VEGFR1 is “−”. In addition, at VEGFR2, the VEGFR2 growth restoration entry is recorded as “−”.

In the case of `Cc1nccn2c(Nc3ccc(F)c(F)c3)c(-c3ccccc3)nc12` [compound 45, (3,4-Difluoro-phenyl)-(8-methyl-2-phenyl-imidazo[1,2-a]pyrazin-3-yl)-amine], at RET, the RET growth restoration result was “−”. Besides, the InsR growth restoration result at InsR is given as “−”. The EphB2 growth restoration result at EphB2 is reported as “++”. Further, at TEK, the TEK growth restoration result is “−”. The IGF-1R growth restoration entry at IGF-1R is “−”. In addition, the VEGFR1 growth restoration entry on VEGFR1 was “−”. Besides, the VEGFR2 growth restoration entry on VEGFR2 was “−”.
